Test results reported in ChEMBL document CHEMBL1201862, “PubChem BioAssay data set” (2004).
Activity calls are given as the source filed them.

Assays:
[1] = test system: HeLa; experiment: viability loss in HeLa cells – cell-based, 24 h, cherry-picked samples, cytotoxicity control, dose response (AID 504726); type: functional; conditions: Homo sapiens;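 also: potency for cytotoxicity as loss of luminescence signal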
[2] = molecular target: Protein Rev (Human immunodeficiency virus type 1 group M subtype B (isolate WMJ22)(HIV-1), UniProt P05866); experiment: inhibitors of Rev protein–RRE RNA complex – biochemical, protein-RNA interaction, dose response (AID 842); parameters: species or system Human immunodeficiency virus 1
Protein Rev, sequence (P05866 whole entry): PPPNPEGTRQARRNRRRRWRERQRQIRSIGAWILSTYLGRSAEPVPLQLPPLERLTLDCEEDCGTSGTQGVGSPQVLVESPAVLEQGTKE

[3] = test system: Streptococcus sp. 'group A'; experiment: Streptococcus pyogenes SK(-)GAS viability under kanamycin – luminescence, BacTiterGlo, confirmation, counter-screen for streptokinase expression inhibitor project, dose response (AID 1900); type: functional, organism-based
[4] = test system: HEK293; experiment: Fluorescence-based counterscreen for potentiators or agonists of NPY-Y1: cell-based high-throughput dose response assay for inhibitors of cyclic nucleotide gated ion channel (CNGC) activity. In this assay, the parental HEK293 cell line transfected with a cyclic-nucleotide gated ion channel (CNGC)-based cAMP sensor is used to measure inhibition of isoproterenol-induced CNGC …; type: functional; conditions: Homo sapiens
[5] = test system: Streptococcus; experiment: GAS UMAA2166 growth inhibition – luminescence, BacTiterGlo, counter-screen for streptokinase expression inhibitor project, dose response (AID 1915); type: functional, organism-based;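 also: potency for reduction of bacterial viability or growth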
[6] = molecular target: Lysosomal acid glucosylceramidase (Homo sapiens, UniProt P04062); experiment: Dose response cell-based high throughput screening assay to identify enhancers of beta-glucosidase activity. [Related pubchem assays: 784 ]; type: functional
Lysosomal acid glucosylceramidase, sequence (P04062 whole entry): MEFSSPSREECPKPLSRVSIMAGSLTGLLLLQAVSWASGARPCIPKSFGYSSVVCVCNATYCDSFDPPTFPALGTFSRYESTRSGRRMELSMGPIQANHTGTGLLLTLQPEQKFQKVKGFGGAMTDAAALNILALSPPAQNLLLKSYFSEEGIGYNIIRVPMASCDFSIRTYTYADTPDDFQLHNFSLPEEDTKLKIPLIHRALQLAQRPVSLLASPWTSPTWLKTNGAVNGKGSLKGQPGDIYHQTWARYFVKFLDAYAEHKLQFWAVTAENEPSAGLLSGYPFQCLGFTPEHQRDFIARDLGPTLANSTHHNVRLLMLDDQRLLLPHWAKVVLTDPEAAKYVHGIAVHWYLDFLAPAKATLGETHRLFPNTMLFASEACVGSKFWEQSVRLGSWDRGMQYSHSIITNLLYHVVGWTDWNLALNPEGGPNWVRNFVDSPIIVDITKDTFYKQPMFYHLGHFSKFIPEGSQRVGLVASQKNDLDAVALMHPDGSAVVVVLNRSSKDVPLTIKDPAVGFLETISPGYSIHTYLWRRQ

[7] = test system: HEK293; experiment: PMA/Ionomycin induced NF-kB luciferase assay in 293- NF-kB-Luc stable cells. [Related pubchem assays: 1299, 1270, 1295, 1375, 1287, 1281, 1293, 1291, 1289, 1280, 465, 1364, 1282, 1372, 1365, 1370, 1367, 1366, 1269, 1373, 1292, 1290, 1302, 1371, 1283, 1271, 1294, 1374, 1368, 1369 ]; type: functional, cell-based; conditions: Homo sapiens
[8] = molecular target: Luciferin 4-monooxygenase (Photinus pyralis, UniProt P08659); experiment: In vitro luciferase assay using purified luciferase. [Related pubchem assays: 1299, 1270, 1295, 1375, 1287, 1281, 1293, 1291, 1289, 1280, 465, 1364, 1282, 1372, 1365, 1370, 1367, 1366, 1266, 1373, 1292, 1290, 1302, 1371, 1283, 1271, 1294, 1374, 1368, 1369 ]
Luciferin 4-monooxygenase, sequence (P08659 whole entry): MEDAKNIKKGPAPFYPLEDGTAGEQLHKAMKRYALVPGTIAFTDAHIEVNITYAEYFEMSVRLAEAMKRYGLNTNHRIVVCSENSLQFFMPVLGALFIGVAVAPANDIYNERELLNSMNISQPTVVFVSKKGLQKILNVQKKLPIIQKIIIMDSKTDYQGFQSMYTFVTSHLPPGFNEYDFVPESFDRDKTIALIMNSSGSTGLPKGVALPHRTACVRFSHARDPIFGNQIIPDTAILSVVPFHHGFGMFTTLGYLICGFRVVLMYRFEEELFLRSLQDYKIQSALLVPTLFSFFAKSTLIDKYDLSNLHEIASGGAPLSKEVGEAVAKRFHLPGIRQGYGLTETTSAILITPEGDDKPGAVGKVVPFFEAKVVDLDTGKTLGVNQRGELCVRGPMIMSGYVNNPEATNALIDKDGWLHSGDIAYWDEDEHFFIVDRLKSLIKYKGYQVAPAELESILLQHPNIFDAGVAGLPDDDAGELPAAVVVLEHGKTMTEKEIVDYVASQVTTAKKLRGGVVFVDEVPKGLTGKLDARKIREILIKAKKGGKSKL

[9] = test system: HEK293; experiment: PMA/Ionomycin-induced IL-8 production in HEK293- NF-kB-Luc stable cells. [Related pubchem assays: 1299, 1295, 1375, 1287, 1281, 1293, 1291, 1289, 1280, 465, 1364, 1282, 1372, 1365, 1367, 1366, 1266, 1269, 1373, 1292, 1290, 1302, 1371, 1283, 1271, 1294, 1374, 1368, 1369 ]; type: functional, cell-based; conditions: Homo sapiens
[10] = test system: HEK293; experiment: Cytotoxicity assay in HEK293 cells. [Related pubchem assays (depositor defined):AID1266, AID1269, AID1270, AID1271, AID1280, AID1281, AID1282, AID1283, AID1287, AID1289, AID1290, AID1291, AID1292, AID1293, AID1294, AID1295, AID1299, AID1302, AID1364, AID1365, AID1366, AID1367, AID1369, AID1370, AID1371, AID1372, AID1373, AID1374, AID1375, AID1384 …; type: functional, cell-based; conditions: Homo sapiens
[11] = test system: HEK293; experiment: TNF Induced NF-kB Luciferase in 293-NF-kB-Luc Stable Cells. [Related pubchem assays: 1266, 1299, 1269, 1373, 1292, 1290, 1302, 1371, 1283, 1270, 1295, 1271, 1375, 1294, 1374, 1281, 1293, 1291, 1289, 1280, 465, 1368, 1364, 1282, 1372, 1365, 1369, 1370, 1367, 1366 ]; type: functional, cell-based; conditions: Homo sapiens

In the case of `Brc1ccc(-c2noc(COc3ccc4c(c3)CCC4)n2)o1`, the AC50 [1] was 337 µM (active).

In the case of `CCOC(=O)c1c(C)n(C)c2ccc(O)c(CN(C)C)c12`, the IC50 [2] was > 79.4 µM (not active).

With `CCOc1ccc(NC(S)=NN=C(S)Nc2cccc(C(F)(F)F)c2)cc1` the EC50 [3] was 24.4 µM (active), the IC50 [4] was > 35.4 µM (not active) and the EC50 [5] was > 150 µM (not active).

For `CCOC(=O)c1oc2c(C)c(O)ccc2c(=O)c1-c1nncn1-c1ccccc1`, the EC50 [6] was > 50 µM (not active).

In the case of `CN(C)c1ncnc2c1ncn2[C@@H]1OC(CO)C(O)C1O` (stereo partly specified), the EC50 [7] was 1.85 µM (active), the EC50 [8] was > 8 µM (not active) and the EC50 [9] was > 8 µM (not active). The EC50 [10] was 12.2 µM (inactive) and the EC50 [11] was > 8 µM (not active).
